One may read the melting point as the temperature of the solid-liquid transition. `C#Cc1ccc(-n2c(/C=C/c3cc(OC)ccc3OC)nc3ncccc3c2=O)cc1` [4n, (E)-2-(2,5-Dimethoxystyryl)-3-(4-ethynylphenyl)pyrido[2,3-d]pyrimidin-4(3H)-one] displayed a melting point of 127 to 128 °C.
In turn, `C#Cc1ccc(-n2c(/C=C/c3ccc(F)c(F)c3)nc3ncccc3c2=O)cc1` [4f, (E)-2-(3,4-Difluorostyryl)-3-(4-ethynylphenyl)pyrido[2,3-d]pyrimidin-4(3H)-one] showed a melting point of 123 to 124 °C.
With `C#Cc1ccc(-n2c(/C=C/c3c(OC)cc(OC)cc3OC)nc3ncccc3c2=O)cc1` [4r, (E)-3-(4-Ethynylphenyl)-2-(2,4,6-trimethoxystyryl)pyrido[2,3-d]pyrimidin-4(3H)-one] the figure was 124 to 125 °C; with `C#Cc1ccc(-n2c(/C=C/c3cc(OC)cc(OC)c3)nc3ncccc3c2=O)cc1` [4m, (E)-2-(3,5-Dimethoxystyryl)-3-(4-ethynylphenyl)pyrido[2,3-d]pyrimidin-4(3H)-one], 123 to 124 °C; with `C#Cc1ccc(-n2c(/C=C/c3cccc4c3OCO4)nc3ncccc3c2=O)cc1` [4o, (E)-2-(2-(benzo[d][1,3]dioxol-4-yl)vinyl)-3-(4-ethynylphenyl)pyrido[2,3-d]pyrimidin-4(3H)-one], 125 to 126 °C.
With `C#Cc1ccc(-n2c(/C=C/c3ccc(F)cc3)nc3ncccc3c2=O)cc1` [4a, (E)-3-(4-Ethynylphenyl)-2-(4-fluorostyryl)pyrido[2,3-d]pyrimidin-4(3H)-one] the figure was 123 to 124 °C.
To `C#Cc1ccc(-n2c(/C=C/c3ccc4[nH]ccc4c3)nc3ncccc3c2=O)cc1` [4u, (E)-2-(2-(1H-Indol-5-yl)vinyl)-3-(4-ethynylphenyl)pyrido[2,3-d]pyrimidin-4(3H)-one] belongs 123 to 124 °C.
Consider `C#Cc1ccc(-n2c(/C=C/c3ccc(OC)c(F)c3)nc3ncccc3c2=O)cc1` [4h, (E)-3-(4-Ethynylphenyl)-2-(3-fluoro-4-methoxystyryl)pyrido[2,3-d]pyrimidin-4(3H)-one], for which the melting point is 124 to 125 °C.
With `C#Cc1ccc(-n2c(/C=C/c3ccc(O)c(OC)c3)nc3ncccc3c2=O)cc1` [4k, (E)-3-(4-Ethynylphenyl)-2-(4-hydroxy-3-methoxystyryl)pyrido[2,3-d]pyrimidin-4(3H)-one] the figure was 123 to 124 °C; with `C#Cc1ccc(-n2c(/C=C/c3c[nH]c4ccc(OC)cc34)nc3ncccc3c2=O)cc1` [4v, (E)-3-(4-ethynylphenyl)-2-(2-(5-methoxy-1H-indol-3-yl)vinyl)pyrido[2,3-d]pyrimidin-4(3H)-one], 114 to 115 °C; with `C#Cc1ccc(-n2c(/C=C/c3cccc(OC(F)(F)F)c3)nc3ncccc3c2=O)cc1` [4d, (E)-3-(4-Ethynylphenyl)-2-(3-(trifluoromethoxy)styryl)pyrido[2,3-d]pyrimidin-4(3H)-one], 128 to 129 °C.

The values are drawn from patent US9783537B2, “3-(4-ethylnylphenyl) pyridopyrimidinone compounds and process for preparation thereof useful as potential anticancer agents” (Council of Scientific & Industrial Research, priority 2013, dated 2017).
